Laboratory results reported in patent US10729671B2, “Zinc complexes of hydrazones and (thio)semicarbazones and their use for the treatment of cancer” (RUTGERS, THE STATE UNIVERSITY OF NEW JERSEY, priority 2015, dated 2020).

Columns and labels:
TOV112D = test: Cell-based TOV112D activity (cell growth inhibition assay); parameters: species or system human
HEK293 cells = test: Intracellular [Zn2+]free imaging with FluoZin-3-AM in HEK293 cells; type: cell-based
Description: (§1) To minimize the potential for Zn^2+ contamination and contributions from poorly defined elements in complete media (e.g. FBS), cells were treated and imaged in Ca^2+ and Mg^2+-free Earle's Balanced Salt Solution supplemented with 10 mM HEPES pH 7.4 (EBSS/H (−)Ca/Mg). Excess ZnCl2 with the Zn^2+ ionophore pyrithione (PYR) was used as a positive control. Excess membrane-permeable Zn^2+ chelator N,N,N′,N′-tetrakis(2-pyridylmethyl)ethane-1,2-diamine (TPEN) was used as a negative control.
To normalize for differential dye loading, cells were then sequentially treated with excess PYR/ZnCl2, imaged, treated with TPEN, and imaged again. PYR/ZnCl2 and TPEN served to saturate and apoize the intracellular FZ3, respectively.
(§2) [formula] where Ji is the initial flux, ΔF/Δt is the slope of the fit line, Fmax is RZ-3 fluorescence in the presence of saturating Zn^2+ and 1% TritonX-100, Fmin is RZ-3 fluorescence in the presence of excess EDTA and 1% TritonX-100, [RZ3] is the concentration of encapsulated RZ-3, and SA/Vol is the surface area to volume ratio calculated assuming hollow spheres of the mean diameter determined by DLS. Intracellular [Zn^2+]free Imaging TOV112D or HEK293 cells (40,000 cells/well) were plated on either 8-well BD Falcon chambered culture slides (Corning Life Sciences) or 8-chambered #1.5 Nunc Lab-Tek II chambered coverglasses (Thermo Scientific) treated with poly-L-lysine. After 48 h, cells were washed 2×5 m in serum-free media and incubated with 1 μM FZ3-AM for 40 m at 37° C. Cells were then washed 2×5 m in either EBSS/H (−)Ca/Mg or phenol-red free DMEM+10% FBS containing the indicated treatments for 20 m before imaging. For nuclear colocalization, 1 μg/mL Hoechst 33342 was also included. Cells were imaged using a Zeiss LSM510 META NLO confocal microscope equipped with 37° C. environmental control chamber. FZ3 and Hoechst 33342 were excited at 488 nm (argon laser) and 790 nm (Chameleon Ti:sapphire laser), respectively. To determine the kinetics of fluorescence change, each background-subtracted image in the time-lapse series was integrated in ImageJ and normalized to the integrated fluorescence of the first frame after treatment. For quantification of intracellular [Zn^2+]free, each cell was analyzed in the treated, 50 μM PYR/ZnCl2 (1:1), and 100 μM TPEN images by taking the mean fluorescence of an ROI inside the cell subtracted by an ROI immediately outside the cell measured in ImageJ. The [Zn^2+]free for each cell was then calculated by Eqn 2:
[formula] […] To minimize the effects of outliers the lowest and highest 5% of cells in each series were rejected, and the remaining values averaged to give the value from that experiment. The number of cells analyzed in each trial ranged from 54-163. […]

TOV112D cells = test: Intracellular [Zn2+]free imaging with FluoZin-3-AM in TOV112D cells; type: cell-based; settings: ZMC1 alone (no ZnCl2), EBSS/H (−)Ca/Mg
Description: as §1
To normalize for differential dye loading, cells were then sequentially treated with excess PYR/ZnCl2, imaged, treated with TPEN, and imaged again. […]
[formula] where Ji is the initial flux, ΔF/Δt is the slope of the fit line, Fmax is RZ-3 fluorescence in the presence of saturating Zn^2+ and 1% TritonX-100, Fmin is RZ-3 fluorescence in the presence of excess EDTA and 1% TritonX-100, [RZ3] is the concentration of encapsulated RZ-3, and SA/Vol is the surface area to volume ratio calculated assuming hollow spheres of the mean diameter determined by DLS. […] To determine the kinetics of fluorescence change, each background-subtracted image in the time-lapse series was integrated in ImageJ and normalized to the integrated fluorescence of the first frame after treatment. […] The [Zn^2+]free for each cell was then calculated by Eqn 2:
[formula] […] The number of cells analyzed in each trial ranged from 54-163. […]

[1] = Liposome import assay (RZ-3 fluorescence); settings: for Zn2+ transport into liposomes: external [Zn2+]free 10 μM
Description: DOPC-liposomes were prepared by film rehydration and extrusion followed by gel filtration and diluted to an OD600=0.06 in buffer. The size distribution of the liposomes was determined by dynamic light scattering (DLS) using a Malvern Zetasizer Nano ZS. Fluorescence measurements were taken on a Horiba Fluoromax-4 spectrofluorimeter in a 5×5 mm quartz cuvette with λex/λem=550/572 nm for RZ-3 and 490/515 nm for calcein. Initial Zn^2+ import/export was quantified by fitting the first 10-30 s of data after each treatment to a line and converted to units of flux using the following Eqn 1:
as §2, with “For nuclear colocalization, 1 μg/mL Hoechst 33342 was also included. Cells were imaged using a Zeiss LSM510 META NLO confocal microscope equipped with 37° C. environmental control chamber. FZ3 and Hoechst 33342 were excited at 488 nm (argon laser) and 790 nm (Chameleon Ti:sapphire laser), respectively.” left out, “2: […]” for “2:”

Zn2+ binding affinity = test: Zn2+ binding affinity
Description: It can function as an ionophore in conditions of the liposome experiments where external [Zn^2+]free was 10 μM. However, in complete media containing 10% fetal bovine serum (FBS), Zn^2+-binding proteins from the serum (e.g. albumin) necessarily compete for Zn^2+ with any putative MC, making the effective [Zn^2+]free much lower than [Zn^2+]total.
FZ3-AM, RZ-3 (K^+ salt), and cell culture media were purchased from Life Technologies. DOPC was purchased from Avanti Polar Lipids. ZMC1 and A6 were similarly obtained. […] HEK293 and TOV112D cells were purchased from ATCC and maintained in DMEM+GlutaMAX with 10% FBS and 1 mg/mL penicillin-streptomycin under a 5% CO2 atmosphere at 37° C. All non-cell based experiments were conducted in 50 mM Tris pH 7.2, 0.1 M NaCl at 25° C.

[2] = HEK293 (non-cancer, p53-WT), FZ3-AM, complete media, confocal microscopy

SMILES | Activity TOV112D (TOV112D) | also measured
C/C(=N\Nc1nc2ccccc2n1C)c1ccccn1 [Compound 10, (E)-1-methyl-2-(2-(1-(pyridin-2-yl)ethylidene)hydrazinyl)-1H-benzo[d]imidazole] | +++ | –
C/C(=N\NC(=S)N1CCC1)c1cnccn1 [Compound 1, (E)-N′-(1-(Pyrazin-2-yl)ethylidene)azetidine-1-carbothiohydrazide] | ++ | –
C/C(=N\Nc1nc2ccccc2[nH]1)c1ccccn1 [Compound 9, (E)-2-(2-(1-(pyridin-2-yl)ethylidene)hydrazinyl)-1H-benzo[d]imidazole] | +++ | –
CC(C)/C(=N\Nc1nc2ccccc2s1)c1ccccn1 [Compound 12, (E)-2-(2-(2-methyl-1-(pyridin-2-yl)propylidene)hydrazinyl)benzo[d]thiazole] | + | –
C/C(=N\NC(=S)N1CCC1)c1ccccn1 [ZMC1] | – | increase of intracellular [Zn2+]free (HEK293 cells; [2]): increased; increase of intracellular [Zn2+]free (HEK293 cells; HEK293, ZMC1 alone (no ZnCl2), EBSS/H (−)Ca/Mg): neither cell type showed an increase; increase of intracellular [Zn2+]free (TOV112D cells): neither cell type showed an increase; RZ-3 fluorescence after reversal of the [Zn2+]free gradient (Zn2+ export) ([1]; large excess of EDTA outside of the liposomes, then ZMC1 added): time dependent decrease
CC/C(=N\Nc1nc2ccccc2s1)c1ccccn1 [Compound 11, (E)-2-(2-(1-(pyridin-2-yl)propylidene)hydrazinyl)benzo[d]thiazole] | +++ | –
C/C(=N\Nc1nc2ccccc2s1)c1ncc[nH]1 [Compound 13, (E)-2-(2-(1-(1H-imidazol-2-yl)ethylidene)hydrazinyl)benzo[d]thiazole] | + | –
C/C(=N\NC(=O)N1CCC1)c1ccccn1 [Compound A6] | – | increase of intracellular [Zn2+]free (HEK293 cells; [2]): did not; Zn2+ transport into liposomes [1]: shuttled Zn^2+ into the liposomes; Kd (Zn2+ binding affinity): 1100 nM
C/C(=N\NC(=S)N1CCC1)c1cc(N(C)C)ccn1 [Compound 2, (E)-N′-(1-(4-(dimethylamino)pyridin-2-yl)ethylidene)azetidine-1-carbothiohydrazide] | +++ | –
C/C(=N\Nc1nc2ccccc2o1)c1ccccn1 [Compound 4, (E)-2-(2-(1-(pyridin-2-yl)ethylidene)hydrazinyl)benzo[d]oxazole] | +++ | –
C/C(=N\Nc1nc2ccc(F)cc2s1)c1ccccn1 [Compound 15, (E)-6-fluoro-2-(2-(1-(pyridin-2-yl)ethylidene)hydrazinyl)benzo[d]thiazole] | +++ | –
C/C(=N\Nc1nc2ccccc2s1)c1ccccn1 [Compound 3, (E)-2-(2-(1-(pyridin-2-yl)ethylidene)hydrazinyl)benzo[d]thiazole] | +++ | –
O=C(O)CN(CC(=O)O)CC(=O)O [NTA] | – | increase of intracellular [Zn2+]free (HEK293 cells; [2]): did not; Zn2+ transport into liposomes [1]: did not
C/C(=N\Nc1nc2cc(F)ccc2s1)c1ccccn1 [Compound 14, (E)-5-fluoro-2-(2-(1-(pyridin-2-yl)ethylidene)hydrazinyl)benzo[d]thiazole] | +++ | –
